Assay results reported in publication PMC9837035 (Nature Communications, 2023).
“And” between values parts separate entries of the source, which are not always exact repeats. Identical values can stand only once.

What was measured:
[1] = test system: CHD3 and CHD4 occupancy at the BGLT3 gene locus; assay: ChIP-qPCR with antibodies against CHD3 or CHD4 in HUDEP-2 cells; format: cell-based, human; conditions: HUDEP-2, 1 μM, 4 days
Protocol: A total of 0.5–1 × 10^6 cells were cross-linked with 1% formaldehyde for 10 min at room temperature and the reaction was quenched with 250 mM glycine. Cross-linked cells were then lysed with buffer 1 (15 mM Tris-HCl (pH 7.5), 60 mM KCl, 15 mM NaCl, 5 mM MgCl2, 0.1 mM EGTA, 300 mM sucrose, […], 1 mM phenylmethanesulfonyl fluoride (PMSF), 0.5% NP40) and incubated on ice for 10 min. After centrifugation, the pellet was re-suspended in buffer 2 (15 mM Tris-HCl (pH 7.5), 60 mM KCl, 15 mM NaCl, 5 mM MgCl2, 0.1 mM EGTA, 1.2 M sucrose, […], 1 mM PMSF). After centrifugation, the pellet was then re-suspended in MNase buffer (50 mM Tris-HCl (pH 7.5), 1 mM CaCl2, 4 mM MgCl2, 320 mM sucrose, 1 mM PMSF) and digested with 100 U of micrococcal nuclease (Takara) at 37 °C for 15 min. […] The samples were analyzed by qPCR. […] ChIP-seq analysis were analyzed Cutadapt (V1.9.1) for QC, FastQC (V0.10.1) for QC assessment, Bowtie (V2.1.0) for mapping, strand cross-correlation (SCC) for ChIP quality assessment, MACS2 for peak calling, and R package ChIPpeakAnno for Peak annotated.

[2] = test system: Salmonella typhimurium TA100; assay: Ames test, TA100
Protocol: The Salmonella mutagenicity assay was performed by pre-incubating the test compounds for 20 min with Salmonella typhimurium strains TA98 and TA100, with and without metabolic activation (S9 mixture).
After this time 2 mL of top agar was added to the mixture and poured on to a plate containing minimum agar. The plates were incubated at 37 °C for 49 h and the His ± revertant colonies were counted manually and automatically by a colony counter (Colony analyzer CA-11D systems, System science Co.,Ltd.). The influence of metabolic activation was tested by adding 500 μL of 10% S9 mixture. All experiments were performed in duplicate. […] DMSO served as the negative control (100 μL/plate). The mutagenic index (MI, the average number of revertants per plate divided by the average number of revertants per plate from the negative control) was also calculated for each dose. A sample was considered positive when the MI was equal to or greater than 2 for at least one of the tested doses.

Q: What does the source list for `Cc1c(C(=O)NC(CCC2CC2)C(=O)Nc2ccc(C#N)cc2)[nH]c2c1C(=O)CC(C)(C)C2` (stereo not drawn) [RK-701]?
A: occupancy of CHD4 on the BGLT3 gene locus [1]: significantly decreased; Number of reverants/plate ([2]; TA100, + S9, base pair substitution mutation, 4.88 μg/plate): 107 and 119; Number of reverants/plate ([2]; TA100, + S9, base pair substitution mutation, 19.5 μg/plate): 117 and 120; Number of reverants/plate ([2]; TA100, + S9, base pair substitution mutation, 78.1 μg/plate): 117 and 128; Number of reverants/plate ([2]; TA100, + S9, base pair substitution mutation, 313 μg/plate): 97 and 127; Number of reverants/plate ([2]; TA100, + S9, base pair substitution mutation, 1250* μg/plate): 98 and 121; Number of reverants/plate ([2]; TA100, + S9, base pair substitution mutation, 2500* μg/plate): 117 and 90; Number of reverants/plate ([2]; TA100, + S9, base pair substitution mutation, 5000* μg/plate): 111 and 110; Number of revertants/plate ([2]; TA100, +S9, 4.88 μg/plate): 113; Number of revertants/plate ([2]; TA100, +S9, 19.5 μg/plate): 119; Number of revertants/plate ([2]; TA100, +S9, 78.1 μg/plate): 123; Number of revertants/plate ([2]; TA100, +S9, 313 μg/plate): 112; Number of revertants/plate ([2]; TA100, +S9, 1250 μg/plate, insoluble material): 110; Number of revertants/plate ([2]; TA100, +S9, 2500 μg/plate, insoluble material): 104; Number of revertants/plate ([2]; TA100, +S9, 5000 μg/plate, insoluble material): 111; Number of reverants/plate ([2]; TA100, - S9, base pair substitution mutation, 4.88 μg/plate): 110 and 135; Number of reverants/plate ([2]; TA100, - S9, base pair substitution mutation, 19.5 μg/plate): 102 and 108; Number of reverants/plate ([2]; TA100, - S9, base pair substitution mutation, 78.1 μg/plate): 90 and 106; Number of reverants/plate ([2]; TA100, - S9, base pair substitution mutation, 313 μg/plate): 125 and 110; Number of reverants/plate ([2]; TA100, - S9, base pair substitution mutation, 1250* μg/plate): 99 and 94; Number of reverants/plate ([2]; TA100, - S9, base pair substitution mutation, 2500* μg/plate): 98 and 108; Number of reverants/plate ([2]; TA100, - S9, base pair substitution mutation, 5000* μg/plate): 93 and 98; Number of revertants/plate ([2]; TA100, -S9, 4.88 μg/plate): 123; Number of revertants/plate ([2]; TA100, -S9, 19.5 μg/plate): 105; Number of revertants/plate ([2]; TA100, -S9, 78.1 μg/plate): 98; Number of revertants/plate ([2]; TA100, -S9, 313 μg/plate): 118; Number of revertants/plate ([2]; TA100, -S9, 1250 μg/plate, insoluble material): 97; Number of revertants/plate ([2]; TA100, -S9, 2500 μg/plate, insoluble material): 103; Number of revertants/plate ([2]; TA100, -S9, 5000 μg/plate, insoluble material): 96; mutagenicity ([2]; TA100, regardless of metabolic activation): no mutagenicity
